Data as given in the supplement of paper PMC10307832.

Tests used:
Assay in all cases: relative viability (nuclei count vs DMSO), 5 days (fraction); higher = more cells survive
Carboplatin = compound: C1CC(C1)(C(=O)O)C(=O)O.[NH2-].[NH2-].[Pt+2] [Carboplatin]
Outline: (§1)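 MetaXpress counted nuclei in 4× images of lung cancer cell lines that had been fixed, permeabilised and Hoechst-stained in one step. Before that, cells in 1536-well plates were kept overnight at 37 °C, pinned with five √10-spaced library-drug doses on vehicle-anchored plates, and cultured 5 days without medium change. Viability takes treated-well nuclei over vehicle-well nuclei and uses the median across plates. Plates were accepted only at control CV below 25% and at least one doubling.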

MLN4924 = compound: NS(=O)(=O)OC[C@@H]1C[C@@H](n2ccc3c(N[C@H]4CCc5ccccc54)ncnc32)C[C@@H]1O [MLN4924]
Outline: as §1

GSK126 = compound: CC[C@H](C)N1C=C(C2=C(C=C(C=C21)C3=CN=C(C=C3)N4CCNCC4)C(=O)NCC5=C(C=C(NC5=O)C)C)C [GSK126]
Outline: as §1

Carboplatin + Alpelisib = compound: C1CC(C1)(C(=O)O)C(=O)O.[NH2-].[NH2-].[Pt+2] [Carboplatin] + Cc1nc(NC(=O)N2CCC[C@H]2C(N)=O)sc1-c1ccnc(C(C)(C)C(F)(F)F)c1 [Alpelisib] (partner 2 µM)
Outline: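 Lung cancer cell lines in 1536-well plates got either a single drug or a fixed anchor-drug dose together with five library-drug doses (not always all listed) in √10 steps, by pin tool, on the day after seeding. Nuclei were counted after 5 days, and relative viability is the treated-to-vehicle ratio of nuclei counts. Values are medians of duplicate plates.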

| Cell Line | relative viability (Carboplatin; 0.08 µM) | relative viability (Carboplatin; 0.253 µM) | relative viability (Carboplatin; 0.8 µM) | relative viability (Carboplatin; 2.53 µM) | relative viability (Carboplatin; 8 µM) | relative viability (MLN4924; 0.04 µM) | relative viability (MLN4924; 0.1265 µM) | relative viability (MLN4924; 0.4 µM) | relative viability (MLN4924; 1.265 µM) | relative viability (MLN4924; 4 µM) | relative viability (GSK126; 0.08 µM) | relative viability (GSK126; 0.253 µM) | relative viability (GSK126; 0.8 µM) | relative viability (GSK126; 2.53 µM) | relative viability (GSK126; 8 µM) | relative viability (Carboplatin + Alpelisib; first compound 0.08 µM) | relative viability (Carboplatin + Alpelisib; first compound 0.253 µM) | relative viability (Carboplatin + Alpelisib; first compound 0.8 µM) | relative viability (Carboplatin + Alpelisib; first compound 2.53 µM) | relative viability (Carboplatin + Alpelisib; first compound 8 µM) |
| --- | --- | --- | --- | --- | --- | --- | --- | --- | --- | --- | --- | --- | --- | --- | --- | --- | --- | --- | --- | --- |
| HARA | 1.02 | 0.937 | 0.932 | 0.921 | 0.944 | 0.855 | 0.834 | 0.412 | 0.103 | 0.127 | 1.07 | 0.936 | 0.931 | 0.855 | 0.756 | 0.814 | 0.812 | 0.714 | 0.719 | 0.73 |
| NCI-H2347 | 1.05 | 1 | 1.07 | 1.06 | 0.909 | 0.963 | 0.975 | 0.584 | 0.406 | 0.386 | 1.08 | 0.976 | 1.04 | 1.05 | 1 | 1.02 | 1.12 | 1 | 0.97 | 0.838 |
| COR-L 105 | 0.975 | 0.939 | 0.845 | 0.831 | 0.52 | 0.775 | 0.773 | 0.431 | 0.258 | 0.336 | 1.03 | 0.87 | 0.856 | 1.02 | 0.971 | 1.01 | 1.07 | 0.893 | 0.959 | 0.566 |
| A-427 | 1.07 | 1 | 1 | 1.07 | 1.01 | 0.515 | 0.44 | 0.31 | 0.218 | 0.234 | 1.09 | 1.02 | 0.97 | 1.09 | 1.07 | 1.14 | 1.09 | 1.02 | 1.05 | 1.06 |
| HCC-15 | 1.03 | 1.05 | 0.964 | 0.94 | 0.864 | 0.62 | 0.483 | 0.158 | 0.0986 | 0.103 | 1.07 | 1.03 | 0.988 | 1.01 | 0.909 | 0.93 | 0.93 | 0.84 | 0.761 | 0.707 |
| NCI-H2023 | 1.1 | 1.08 | 0.959 | 0.572 | 0.249 | 0.986 | 0.739 | 0.207 | 0.0741 | 0.0639 | 1.13 | 1.04 | 1.02 | 1.22 | 1.09 | 0.65 | 0.546 | 0.601 | 0.397 | 0.193 |
| ABC-1 | 1.04 | 0.873 | 0.985 | 0.88 | 0.587 | 1.06 | 0.965 | 0.384 | 0.249 | 0.283 | 1.11 | 1.03 | 0.992 | 1.15 | 1.05 | 1.04 | 1.16 | 1.04 | 0.919 | 0.664 |
| LC-2-ad | 1.01 | 0.948 | 0.955 | 0.953 | 0.849 | 0.922 | 0.825 | 0.521 | 0.235 | 0.181 | 1.09 | 0.985 | 0.988 | 1.02 | 1.05 | 0.876 | 0.906 | 0.88 | 0.882 | 0.786 |
| NCI-H460 | 1.02 | 0.981 | 0.994 | 0.915 | 0.412 | 0.976 | 0.985 | 0.914 | 0.288 | 0.105 | 1.08 | 1.06 | 0.984 | 1.01 | 1.05 | 0.462 | 0.424 | 0.325 | 0.322 | 0.0696 |
| NCI-H1915 | 1.03 | 1.02 | 0.971 | 0.932 | 0.737 | 0.958 | 0.911 | 0.692 | 0.219 | 0.224 | 1.05 | 0.978 | 1.01 | 0.973 | 0.994 | 1.05 | 1.06 | 0.966 | 0.893 | 0.675 |
| NCI-H1299 | 1.05 | 0.98 | 1.02 | 0.969 | 0.943 | 1.01 | 0.823 | 0.676 | 0.287 | 0.212 | 1.02 | 0.994 | 0.988 | 1 | 0.998 | 1.06 | 1.11 | 0.997 | 1.02 | 0.909 |
| HOP-62 | 1.03 | 1.03 | 1.06 | 0.981 | 0.833 | 0.814 | 0.74 | 0.226 | 0.067 | 0.101 | 1.01 | 1.02 | 1.03 | 0.968 | 0.973 | 0.746 | 0.991 | 1.09 | 0.922 | 0.77 |
| EPLC-272H | 1.2 | 1.11 | 1.07 | 0.924 | 0.919 | 0.873 | 0.637 | 0.0627 | 0.119 | 0.173 | 1.1 | 1.01 | 0.936 | 1.08 | 1.04 | 0.966 | 0.931 | 0.936 | 0.986 | 0.843 |
| NCI-H647 | 1.13 | 1.02 | 0.986 | 0.944 | 0.767 | 0.881 | 0.619 | 0.221 | 0.0551 | 0.0691 | 0.879 | 0.964 | 0.896 | 1.05 | 1 | 1.23 | 1.14 | 1.23 | 1.12 | 0.771 |
| NCI-H1792 | 1.07 | 0.918 | 0.83 | 0.773 | 0.723 | 0.929 | 0.954 | 1.1 | 0.412 | 0.4 | 0.998 | 0.837 | 1.04 | 0.934 | 0.879 | 0.802 | 0.634 | 0.515 | 0.444 | 0.6 |
| NCI-H2009 | 1.05 | 0.971 | 0.95 | 0.951 | 0.683 | 0.823 | 0.439 | 0.287 | 0.136 | 0.0977 | 1.12 | 0.997 | 0.988 | 0.988 | 1.06 | 1.3 | 1.11 | 1.15 | 0.973 | 0.695 |
